Patent publication US20030027210A1, “Alpha synuclein aggregation assays” (priority 2001, published 2003)
Like-named read-outs stand apart in the source and are kept apart here.

What was measured:
[1] = target: alpha synuclein peptide 61-90 (SEQ.ID.No.:3) (Homo sapiens, UniProt P37840); assay: Thioflavin T fluorescence disaggregation assay of aggregated alpha synuclein; format: biochemical
Description: Prior to assay, concentrated alpha synuclein peptide 61-90 (SEQ.ID.No.:3) was diluted into assay buffer containing Thioflavin T (20 uM) such that a signal to noise of approximately 5 to 1 was achieved. Rifampicin was maintained in 8% DMSO at a concentration of 2 mM. To break up super aggregates, the solution was sonicated using a Heat System sonicator with a microprobe. The samples were sonicated in 30 ml volume in a Coming 50 ml centrifuge tube for 25, 3 second bursts. The assay was run in LJL HE (LJL Biosystems) plates as follows: 18 μl of alpha synuclein/thioflavin T mixture was added to the well followed by 2 μl of a 30% DMSO or by rifampicin diluted in 30% DMSO. As a control, buffer with thioflavin T was added to separate wells in the absence of alpha synuclein. The samples were incubated at room temperature for the times indicated in FIG. 1 and were then read on the LJL reader using wavelengths of 440 nm and 485 nm.
To test the effect of incubation times on disaggregation of alpha synuclein, alpha synuclein was incubated with a rifampicin concentration curve ranging from 0.1 μM to 100 μM for 2 and 5 hours. The data are the mean of 11 samples±the standard deviation at each time point.
The signal to background are from quadruplicate samples of buffer (low value) and alpha synuclein/TFT buffer (high value). The EC50 were generated from 11 samples of each time point.
To narrow down the incubation times as well as to identify the concentrations of rifampicin to use, the above study was repeated using incubation times ranging from 5 minutes to 2 hours and rifampicin concentrations of 1.56 μM to 15 μM.

[2] = target: T1, alpha synuclein protein (Homo sapiens, UniProt P37840); assay: Thioflavin T alpha-synuclein aggregation assay with or without seeding; format: biochemical; conditions: peptide used for seeding; Thioflavin T fluorescence
T1 construct: made in house; host or cells: E. coli ER2566
Description: A fluorescence-based TFT high-throughput screening assay was developed for the a-synuclein aggregation. Thioflavin T absorbs at 450 nm and emits at 485 nm; fluorescence increases 40-fold in the presence of beta-sheet conformation (LeVine and Scholten). Thioflavin T was obtained from Fluka Chemika. Twenty four micrograms (24 μg) of alpha synuclein protein in assay buffer (0.2 M potassium chloride pH=6; 0.075% sodium azide) was added to microvolume multiwell plate holding 10 μL. Then, Thioflavin T (TFT) was added to each well to a final concentration of 20 μM and contents were thoroughly mixed. Alpha-synuclein was allowed to fully aggregated prior to conducting a dissaggregation assay. Degree of aggregation was measured by increase in Thioflavin T fluorescence. Alpha-synuclein aggregation was conducted with or without seeding (using a peptide to enhance the rate of aggregation).
Alpha synuclein aggregates through the formation of a beta sheet structure, measured by increased fluorescence of Thioflavin T at 485 nm.

Row | Molecule | EC50 ([1]; incubation time 15 minutes, rifampicin 1.56 μM to 15 μM, read-out: EC50 for Rifampicin to disaggregate alpha synuclein) [µM] | EC50 ([1]; incubation time 30 minutes, rifampicin 1.56 μM to 15 μM, read-out: EC50 for Rifampicin to disaggregate alpha synuclein) [µM] | EC50 ([1]; incubation time 60 minutes, rifampicin 1.56 μM to 15 μM, read-out: EC50 for Rifampicin to disaggregate alpha synuclein) [µM] | EC50 ([1]; incubation time 2 hours, rifampicin 0.1 μM to 100 μM, room temperature, read-out: Rifampicin EC50) [µM] | EC50 ([1]; incubation time 120 minutes, rifampicin 1.56 μM to 15 μM, read-out: EC50 for Rifampicin to disaggregate alpha synuclein) [µM] | EC50 ([1]; incubation time 5 hours, rifampicin 0.1 μM to 100 μM, room temperature, read-out: Rifampicin EC50) [µM] | effect of seeding peptide on rate of synuclein aggregation [2]
1 | CO[C@H]1/C=C/O[C@@]2(C)Oc3c(C)c(O)c4c(O)c(c(/C=N/N5CCN(C)CC5)c(O)c4c3C2=O)NC(=O)/C(C)=C\C=C\[C@H](C)[C@H](O)[C@@H](C)[C@@H](O)[C@@H](C)[C@H](OC(C)=O)[C@@H]1C [Rifampicin] | 311 | 76 | 16.8 | 23.9 | 10.6 | 21 | 
2 | EQVTNVGGAVVTGVT [syn 61-75, synthetic peptide of residues 61 to 75 of human alpha synuclein, enhances rate of aggregation] |  |  |  |  |  |  | speed up synuclein aggregation
